Test results from patent US9687479B2, “Multisubstituted aromatic compounds as serine protease inhibitors” (VERSEON CORPORATION, priority 2013, dated 2017).

Target: Human thrombin (Homo sapiens (Human), UniProt P00734)
Assay: Thrombin protease activity inhibition assay (chromogenic substrate S-2238)
Assay type: biochemical
Settings: 3 nM thrombin, 125 μM S-2238, 10 min pre-incubation, RT
Description: The thrombin activity reported herein (e.g., Table A) was obtained as follows. […] Thrombin was assayed in buffer containing 0.05 M Tris (pH 7.4), 0.015 M NaCl and 0.01% PEG-8000. The final concentration of enzyme used was 3 nM thrombin. […] All assays were performed in 96-well microtiter plates at room temperature (RT). […] Inhibitor IC50 values were determined by adding test compound as ten point, three-fold serial dilutions in buffer solution, as known in the art. The plate was read at 10 minutes after substrate addition. The IC50 was calculated by plotting the percent (%) inhibition against compound concentration and fitting the data to a constrained four parameter sigmoidal curve, as known in the art.

IC50 | Compound
< 100 nM | O=C(c1ccco1)n1nc(-c2cccn(Cc3ccsc3)c2=O)cc1NCc1ccc(Cl)s1 [Cmpd 169, 3-(5-[(5-chlorothiophen-2-yl)methyl]amino-1-[(furan-2-yl)carbonyl]-1H-pyrazol-3-yl)-1-(thiophen-3-ylmethyl)-1,2-dihydropyridin-2-one]
< 100 nM | COCCn1cccc(-c2cc(NCc3ccc(Cl)s3)n(C(=O)c3ccccc3OC)n2)c1=O [Cmpd 133, 3-(5-[(5-chlorothiophen-2-yl)methyl]amino-1-[(2-methoxyphenyl)carbonyl]-1H-pyrazol-3-yl)-1-(2-methoxyethyl)-1,2-dihydropyridin-2-one]
> 100000 nM | CC1(C(=O)n2nc(-c3cccn(CCN4CCOCC4)c3=O)cc2NCc2ccc(Cl)s2)CCOCC1 [Cmpd 159, 3-(5-[(5-chlorothiophen-2-yl)methyl]amino-1-[(4-methyloxan-4-yl)carbonyl]-1H-pyrazol-3-yl)-1-[2-(morpholin-4-yl)ethyl]-1,2-dihydropyridin-2-one]
> 100000 nM | CN(C)c1cc(-c2ccc[nH]c2=O)nn1C(=O)c1ccco1 [Cmpd 239, 3-[5-(dimethylamino)-1-[(furan-2-yl)carbonyl]-1H-pyrazol-3-yl]-1,2-dihydropyridin-2-one]
1000 to 10000 nM | O=C(Cn1cccc(-c2cc(NCc3ccc(Cl)s3)n[nH]2)c1=O)N1CCOCC1 [Cmpd 233, 3-(5-[(5-chlorothiophen-2-yl)methyl]amino-1H-pyrazol-3-yl)-1-[2-(morpholin-4-yl)-2-oxoethyl]-1,2-dihydropyridin-2-one]
< 100 nM | O=C(c1cccc2c1OCCO2)n1nc(-c2cccn(Cc3ccsc3)c2=O)cc1NCc1ccc(Cl)s1 [Cmpd 118, 3-(5-[(5-chlorothiophen-2-yl)methyl]amino-1-[(2,3-dihydro-1,4-benzodioxin-5-yl)carbonyl]-1H-pyrazol-3-yl)-1-(thiophen-3-ylmethyl)-1,2-dihydropyridin-2-one]
< 100 nM | COc1ccccc1C(=O)n1nc(-c2cccn(CC(=O)OC(C)(C)C)c2=O)cc1NCc1ccc(Cl)s1 [Cmpd 262, tert-butyl 2-[3-(5-[(5-chlorothiophen-2-yl)methyl]amino-1-[(2-methoxyphenyl)carbonyl]-1H-pyrazol-3-yl)-2-oxo-1,2-dihydropyridin-1-yl]acetate]
< 100 nM | COc1ccccc1C(=O)n1nc(-c2cccn(Cc3ccsc3)c2=O)cc1NCc1ccc(Cl)s1 [Cmpd 144, 3-(5-[(5-chlorothiophen-2-yl)methyl]amino-1-[(2-methoxyphenyl)carbonyl]-1H-pyrazol-3-yl)-1-(thiophen-3-ylmethyl)-1,2-dihydropyridin-2-one]
< 100 nM | CC(C)(C)C(=O)n1nc(-c2cccn(Cc3ccc(Cl)cc3)c2=O)cc1NCc1ccc(Cl)s1 [Cmpd 35, 1-[(4-chlorophenyl)methyl]-3-(5-[(5-chlorothiophen-2-yl)methyl]amino-1-(2,2-dimethylpropanoyl)-1H-pyrazol-3-yl)-1,2-dihydropyridin-2-one]
< 100 nM | O=C(c1cccc2c1OCCO2)n1nc(-c2cccn(Cc3cccnn3)c2=O)cc1NCc1ccc(Cl)s1 [Cmpd 112, 3-(5-[(5-chlorothiophen-2-yl)methyl]amino-1-[(2,3-dihydro-1,4-benzodioxin-5-yl)carbonyl]-1H-pyrazol-3-yl)-1-(pyridazin-3-ylmethyl)-1,2-dihydropyridin-2-one]
< 100 nM | CC(C)(C)C(=O)n1nc(-c2cccn(Cc3ccoc3)c2=O)cc1NCc1ccc(Cl)s1 [Cmpd 78, 3-(5-[(5-chlorothiophen-2-yl)methyl]amino-1-(2,2-dimethylpropanoyl)-1H-pyrazol-3-yl)-1-(furan-3-ylmethyl)-1,2-dihydropyridin-2-one]
< 100 nM | O=C(c1cccc2c1OCCO2)n1nc(-c2cccn(Cc3ccco3)c2=O)cc1NCc1ccc(Cl)s1 [Cmpd 110, 3-(5-[(5-chlorothiophen-2-yl)methyl]amino-1-[(2,3-dihydro-1,4-benzodioxin-5-yl)carbonyl]-1H-pyrazol-3-yl)-1-(furan-2-ylmethyl)-1,2-dihydropyridin-2-one]
< 100 nM | O=C(c1ccc(N2CCOCC2)cc1)n1nc(-c2cccn(Cc3ccsc3)c2=O)cc1NCc1ccc(Cl)s1 [Cmpd 217, 3-(5-[(5-chlorothiophen-2-yl)methyl]amino-1-[4-(morpholin-4-yl)phenyl]carbonyl-1H-pyrazol-3-yl)-1-(thiophen-3-ylmethyl)-1,2-dihydropyridin-2-one]
< 100 nM | O=C(c1ccccc1)n1nc(-c2cccn(Cc3cccnn3)c2=O)cc1NCc1ccc(Cl)s1 [Cmpd 65, 3-(1-benzoyl-5-[(5-chlorothiophen-2-yl)methyl]amino-1H-pyrazol-3-yl)-1-(pyridazin-3-ylmethyl)-1,2-dihydropyridin-2-one]
< 100 nM | COc1ccccc1C(=O)n1nc(-c2cccn(CCN3CCOCC3)c2=O)cc1NCc1ccc(Cl)s1 [Cmpd 146, 3-(5-[(5-chlorothiophen-2-yl)methyl]amino-1-[(2-methoxyphenyl)carbonyl]-1H-pyrazol-3-yl)-1-[2-(morpholin-4-yl)ethyl]-1,2-dihydropyridin-2-one]
< 100 nM | O=C(c1cccc2c1OCCO2)n1nc(-c2cccn(CCN3CCOCC3)c2=O)cc1NCc1ccc(Cl)s1 [Cmpd 119, 3-(5-[(5-chlorothiophen-2-yl)methyl]amino-1-[(2,3-dihydro-1,4-benzodioxin-5-yl)carbonyl]-1H-pyrazol-3-yl)-1-[2-(morpholin-4-yl)ethyl]-1,2-dihydropyridin-2-one]

Second part, the molecule before the results:

Compound | IC50
O=C(c1ccccc1Cl)n1nc(-c2cccn(Cc3ncccn3)c2=O)cc1NCc1ccc(Cl)s1 [Cmpd 249, 3-1-[(2-chlorophenyl)carbonyl]-5-[(5-chlorothiophen-2-yl)methyl]amino-1H-pyrazol-3-yl-1-(pyrimidin-2-ylmethyl)-1,2-dihydropyridin-2-one] | < 100 nM
O=C(c1cccs1)n1nc(-c2cccn(Cc3ncccn3)c2=O)cc1NCc1ccc(Cl)s1 [Cmpd 189, 3-(5-[(5-chlorothiophen-2-yl)methyl]amino-1-[(thiophen-2-yl)carbonyl]-1H-pyrazol-3-yl)-1-(pyrimidin-2-ylmethyl)-1,2-dihydropyridin-2-one] | < 100 nM
O=C(c1ccoc1)n1nc(-c2cccn(Cc3ccccc3Cl)c2=O)cc1NCc1ccc(Cl)s1 [Cmpd 29, 1-[(2-chlorophenyl)methyl]-3-(5-[(5-chlorothiophen-2-yl)methyl]amino-1-[(furan-3-yl)carbonyl]-1H-pyrazol-3-yl)-1,2-dihydropyridin-2-one] | < 100 nM
CC1(C(=O)n2nc(-c3cccn(Cc4cccnn4)c3=O)cc2NCc2ccc(Cl)s2)CCOCC1 [Cmpd 152, 3-(5-[(5-chlorothiophen-2-yl)methyl]amino-1-[(4-methyloxan-4-yl)carbonyl]-1H-pyrazol-3-yl)-1-(pyridazin-3-ylmethyl)-1,2-dihydropyridin-2-one] | < 100 nM
O=C(c1ccccc1)n1nc(-c2cccn(Cc3cccs3)c2=O)cc1NCc1ccc(Cl)s1 [Cmpd 70, 3-(1-benzoyl-5-[(5-chlorothiophen-2-yl)methyl]amino-1H-pyrazol-3-yl)-1-(thiophen-2-ylmethyl)-1,2-dihydropyridin-2-one] | < 100 nM
COc1ccccc1C(=O)n1nc(-c2cccn(CC#N)c2=O)cc1NCc1ccc(Cl)s1 [Cmpd 57, 2-[3-(5-[(5-chlorothiophen-2-yl)methyl]amino-1-[(2-methoxyphenyl)carbonyl]-1H-pyrazol-3-yl)-2-oxo-1,2-dihydropyridin-1-yl]acetonitrile] | < 100 nM
CC(C)(C)C(=O)n1nc(-c2cccn(Cc3ccccc3)c2=O)cc1NCc1ccc(Cl)s1 [Cmpd 43, 1-benzyl-3-(5-[(5-chlorothiophen-2-yl)methyl]amino-1-(2,2-dimethylpropanoyl)-1H-pyrazol-3-yl)-1,2-dihydropyridin-2-one] | < 100 nM
COc1ccc(C(=O)n2nc(-c3cccn(Cc4ccsc4)c3=O)cc2NCc2ccc(Cl)s2)c(OC)c1 [Cmpd 130, 3-(5-[(5-chlorothiophen-2-yl)methyl]amino-1-[(2,4-dimethoxyphenyl)carbonyl]-1H-pyrazol-3-yl)-1-(thiophen-3-ylmethyl)-1,2-dihydropyridin-2-one] | < 100 nM
O=C(c1ccccc1)n1nc(-c2cccn(Cc3cccnc3)c2=O)cc1NCc1ccc(Cl)s1 [Cmpd 67, 3-(1-benzoyl-5-[(5-chlorothiophen-2-yl)methyl]amino-1H-pyrazol-3-yl)-1-(pyridin-3-ylmethyl)-1,2-dihydropyridin-2-one] | < 100 nM
COc1ccccc1C(=O)n1nc(-c2cccn(Cc3cccs3)c2=O)cc1NCc1ccc(Cl)s1 [Cmpd 143, 3-(5-[(5-chlorothiophen-2-yl)methyl]amino-1-[(2-methoxyphenyl)carbonyl]-1H-pyrazol-3-yl)-1-(thiophen-2-ylmethyl)-1,2-dihydropyridin-2-one] | < 100 nM
O=C(c1ccoc1)n1nc(-c2cccn(CCN3CCOCC3)c2=O)cc1NCc1ccc(Cl)s1 [Cmpd 181, 3-(5-[(5-chlorothiophen-2-yl)methyl]amino-1-[(furan-3-yl)carbonyl]-1H-pyrazol-3-yl)-1-[2-(morpholin-4-yl)ethyl]-1,2-dihydropyridin-2-one] | < 100 nM
COc1ccc(C(=O)n2nc(-c3ccc[nH]c3=O)cc2NCc2ccc(Cl)s2)c(OC)c1 [Cmpd 121, 3-(5-[(5-chlorothiophen-2-yl)methyl]amino-1-[(2,4-dimethoxyphenyl)carbonyl]-1H-pyrazol-3-yl)-1,2-dihydropyridin-2-one] | < 100 nM
O=C(c1ccco1)n1nc(-c2cccn(CCN3CCOCC3)c2=O)cc1NCc1ccc(Cl)s1 [Cmpd 170, 3-(5-[(5-chlorothiophen-2-yl)methyl]amino-1-[(furan-2-yl)carbonyl]-1H-pyrazol-3-yl)-1-[2-(morpholin-4-yl)ethyl]-1,2-dihydropyridin-2-one] | > 100000 nM
